Tested on: PTZ induced rat model
Assay: PTZ (pentylene-tetrazole) induced convulsions, anti-convulsant activity in Wistar rats
Type: in vivo
Details: male Wistar rats, n=6 per group, 60 mg/kg PTZ intraperitoneally 1 hr after test item; for Straub Tail / Clonic Convulsions / Stupor / Tonic Convulsions: doses per Table 1; for Clonic Convulsions / Stupor / Tonic Convulsions: mean; for Recovery: outcome recovery or death
Method: The purpose of this study is to evaluate the effect of anti-convulsant activity of the test compound in Wistar Rats.
The systemic administration of PTZ is one of the most commonly employed methods for anti-convulsant screening. The preference has been given to this model due to its ease of performance, reliability, ease of expressing results and the shorter time-period to produce convulsions.
60 mg/kg of PTZ was injected per body weight, intraperitoneally 1 hr after the test item administration.
All animals were acclimatized for five days and seizures were induced by administering 60 mg/kg PTZ per body weight, 1 hr after test item administration. Normal control group was injected with phosphate buffer solution.
As Group 1 (Vehicle control), Group 2 served as diseased control, Group 3 was Reference standard and Group 4, Group 5 and Group 6 served as test substance. The dose was administered for short term (single day administration) or long term (14 or 21 days) after acclimatization.
The time was recorded for convulsion phase clonic, tonic and stupor after test administration. All values were expressed as MEAN±STD. The significant difference between the treatment and control group was estimated using oneway ANOVA with Dennett's test. All results of the statistical analysis were summarized in separate tables.

Row | SMILES | Straub Tail | Clonic Convulsions | Stupor | Tonic Convulsions | Recovery
1 | CCCCCCCCCC(=O)OCC(COC(=O)CCCCCCCCC)OC(=O)CCCCCCCCC [Tridecanoin] | Absent | 5.00 s | 74.16 s | 7.66 s | Recovery
2 | CC[C@@H](C(N)=O)N1CCCC1=O [Levetiracetam, reference compound] | Absent | 3.33 s | 56.16 s | 5.83 s | Recovery
3 | C[N+](C)(C)[C@@H](Cc1c[nH]c(=S)[nH]1)C(=O)O [L-Ergothioneine, L-ergothioneine] | Absent | 4.66 s | 70.33 s | 8.00 s | Recovery
